Values of other authors as cited in paper PMC11990879, “Anticandidal Activity of Lipopeptides Containing an LL-37-Derived Peptide Fragment KR12” (Molecules, 2025).
Marks after values point to notes of the source that are not given here. Where a SMILES comes first, the peptide text is derived from it. The star is where a group is joined. Butanoyl(4-Ph) = O=C(CCCc1ccccc1)*; Hydrocinnamoyl = O=C(CCc1ccccc1)*; Octanoyl = CCCCCCCC(=O)*; X3 = O=C(/C=C/c1ccccc1)*; Hexanoyl = CCCCCC(=O)*; X2 = O=C(C#Cc1ccccc1)*; X4 = CCCCC(CC)C(=O)*; Butyryl = CCCC(=O)*

System: human red blood cells
Conditions: cited from earlier work
Description: Table 2 Minimum inhibitory concentrations (MIC) and minimum fungicidal concentrations (MFC) determined for peptides and reference antifungals [g/L]. The highest antimicrobial activity is marked in green, medium values in yellow, while the weakest antifungal activity is marked in red. Minimum hemolytic concentration (MHC5%—causing hemolysis of 5% of human red blood cells) determined in previous stu | column: MHC5%

| Compound | MHC5% (minimum hemolytic concentration causing hemolysis of 5% of human red blood cells) |
| --- | --- |
| CC[C@H](C)[C@H](NC(=O)[C@H](CCCNC(=N)N)NC(=O)[C@H](CCC(N)=O)NC(=O)[C@@H](NC(=O)[C@@H](NC(=O)[C@H](CCCNC(=N)N)NC(=O)[C@H](CCCCN)NC(=O)/C=C/c1ccccc1)[C@@H](C)CC)C(C)C)C(=O)N[C@@H](CCCCN)C(=O)N[C@@H](CC(=O)O)C(=O)N[C@@H](Cc1ccccc1)C(=O)N[C@@H](CC(C)C)C(=O)N[C@@H](CCCNC(=N)N)C(N)=O [IX, trans-cinnamic acid-KR12-NH2] (X3-KRIVQRIKDFLR-NH2) | 128 g/L |
| CCCCCCCC(=O)NCCCC[C@H](N)C(=O)N[C@@H](CCCNC(=N)N)C(=O)N[C@H](C(=O)N[C@H](C(=O)N[C@@H](CCC(N)=O)C(=O)N[C@@H](CCCNC(=N)N)C(=O)N[C@H](C(=O)N[C@@H](CCCCN)C(=O)N[C@@H](CC(=O)O)C(=O)N[C@@H](Cc1ccccc1)C(=O)N[C@@H](CC(C)C)C(=O)N[C@@H](CCCNC(=N)N)C(N)=O)[C@@H](C)CC)C(C)C)[C@@H](C)CC [XI, C8^ε-KR12-NH2] (H-K(Octanoyl)RIVQRIKDFLR-NH2) | >256 * g/L |
| CCCCCCCC(=O)N[C@@H](CCCCN)C(=O)N[C@@H](CCCCN)C(=O)N[C@@H](CCCNC(=N)N)C(=O)N[C@H](C(=O)N[C@H](C(=O)N[C@@H](CCC(N)=O)C(=O)N[C@@H](CCCNC(=N)N)C(=O)N[C@H](C(=O)N[C@@H](CCCCN)C(=O)N[C@@H](CC(=O)O)C(=O)N[C@@H](Cc1ccccc1)C(=O)N[C@@H](CC(C)C)C(=O)N[C@@H](CCCNC(=N)N)C(N)=O)[C@@H](C)CC)C(C)C)[C@@H](C)CC [XII, C8^α-Lys-KR12-NH2] (Octanoyl-KKRIVQRIKDFLR-NH2) | 256 g/L |
| CCCCC(CC)C(=O)N[C@@H](CCCCN)C(=O)N[C@@H](CCCNC(=N)N)C(=O)N[C@H](C(=O)N[C@H](C(=O)N[C@@H](CCC(N)=O)C(=O)N[C@@H](CCCNC(=N)N)C(=O)N[C@H](C(=O)N[C@@H](CCCCN)C(=O)N[C@@H](CC(=O)O)C(=O)N[C@@H](Cc1ccccc1)C(=O)N[C@@H](CC(C)C)C(=O)N[C@@H](CCCNC(=N)N)C(N)=O)[C@@H](C)CC)C(C)C)[C@@H](C)CC (stereo partly drawn) [XX, 2-Ethylhexanoic acid-KR12-NH2] (X4-KRIVQRIKDFLR-NH2) | 256 g/L |
| CC[C@H](C)[C@H](NC(=O)[C@H](CCCNC(=N)N)NC(=O)[C@H](CCC(N)=O)NC(=O)[C@@H](NC(=O)[C@@H](NC(=O)[C@H](CCCNC(=N)N)NC(=O)[C@H](CCCCN)NC(=O)CCCc1ccccc1)[C@@H](C)CC)C(C)C)C(=O)N[C@@H](CCCCN)C(=O)N[C@@H](CC(=O)O)C(=O)N[C@@H](Cc1ccccc1)C(=O)N[C@@H](CC(C)C)C(=O)N[C@@H](CCCNC(=N)N)C(N)=O [XXIII, 4-Phenylbutanoic acid-KR12-NH2] ({Butanoyl(4-Ph)}-KRIVQRIKDFLR-NH2) | 128 g/L |
| CC[C@H](C)[C@H](NC(=O)[C@H](CCCNC(=N)N)NC(=O)[C@H](CCC(N)=O)NC(=O)[C@@H](NC(=O)[C@@H](NC(=O)[C@H](CCCNC(=N)N)NC(=O)[C@H](CCCCN)NC(=O)C#Cc1ccccc1)[C@@H](C)CC)C(C)C)C(=O)N[C@@H](CCCCN)C(=O)N[C@@H](CC(=O)O)C(=O)N[C@@H](Cc1ccccc1)C(=O)N[C@@H](CC(C)C)C(=O)N[C@@H](CCCNC(=N)N)C(N)=O [XXIV, Phenylpropiolic acid-KR12-NH2] (X2-KRIVQRIKDFLR-NH2) | 256 g/L |

Same assay, conditions: human red blood cells; determined in previous studies; ref [13],[14]; cited from earlier work

| Compound | MHC5% (minimum hemolytic concentration causing hemolysis of 5% of human red blood cells) |
| --- | --- |
| CCCC(=O)N[C@@H](CCCCN)C(=O)N[C@@H](CCCNC(=N)N)C(=O)N[C@H](C(=O)N[C@H](C(=O)N[C@@H](CCC(N)=O)C(=O)N[C@@H](CCCNC(=N)N)C(=O)N[C@H](C(=O)N[C@@H](CCCCN)C(=O)N[C@@H](CC(=O)O)C(=O)N[C@@H](Cc1ccccc1)C(=O)N[C@@H](CC(C)C)C(=O)N[C@@H](CCCNC(=N)N)C(N)=O)[C@@H](C)CC)C(C)C)[C@@H](C)CC [II, C4-KR12-NH2] (Butyryl-KRIVQRIKDFLR-NH2) | >256 * g/L |
| CCCCCC(=O)N[C@@H](CCCCN)C(=O)N[C@@H](CCCNC(=N)N)C(=O)N[C@H](C(=O)N[C@H](C(=O)N[C@@H](CCC(N)=O)C(=O)N[C@@H](CCCNC(=N)N)C(=O)N[C@H](C(=O)N[C@@H](CCCCN)C(=O)N[C@@H](CC(=O)O)C(=O)N[C@@H](Cc1ccccc1)C(=O)N[C@@H](CC(C)C)C(=O)N[C@@H](CCCNC(=N)N)C(N)=O)[C@@H](C)CC)C(C)C)[C@@H](C)CC [III, C6-KR12-NH2] (Hexanoyl-KRIVQRIKDFLR-NH2) | 256 g/L |
| CCCCCCCC(=O)NCCCC[C@H](N)C(=O)N[C@@H](CCCCN)C(=O)N[C@@H](CCCNC(=N)N)C(=O)N[C@H](C(=O)N[C@H](C(=O)N[C@@H](CCC(N)=O)C(=O)N[C@@H](CCCNC(=N)N)C(=O)N[C@H](C(=O)N[C@@H](CCCCN)C(=O)N[C@@H](CC(=O)O)C(=O)N[C@@H](Cc1ccccc1)C(=O)N[C@@H](CC(C)C)C(=O)N[C@@H](CCCNC(=N)N)C(N)=O)[C@@H](C)CC)C(C)C)[C@@H](C)CC [XIII, C8^ε-Lys-KR12-NH2] (H-K(Octanoyl)KRIVQRIKDFLR-NH2) | 256 g/L |
| CCCCCCCC(=O)NCCCC[C@H](NC(=O)[C@H](CCCNC(=N)N)NC(=O)[C@H](CC(C)C)NC(=O)[C@H](Cc1ccccc1)NC(=O)[C@H](CC(=O)O)NC(=O)[C@H](CCCCN)NC(=O)[C@@H](NC(=O)[C@H](CCCNC(=N)N)NC(=O)[C@H](CCC(N)=O)NC(=O)[C@@H](NC(=O)[C@@H](NC(=O)[C@H](CCCNC(=N)N)NC(=O)[C@@H](N)CCCCN)[C@@H](C)CC)C(C)C)[C@@H](C)CC)C(N)=O [XIV, KR12-Lys^ε(C8)-NH2] (H-KRIVQRIKDFLRK(Octanoyl)-NH2) | >256 * g/L |
| CCCCCCCC(=O)NCCCC[C@H](NC(=O)[C@H](CC(C)C)NC(=O)[C@H](Cc1ccccc1)NC(=O)[C@H](CC(=O)O)NC(=O)[C@H](CCCCN)NC(=O)[C@@H](NC(=O)[C@H](CCCNC(=N)N)NC(=O)[C@H](CCC(N)=O)NC(=O)[C@@H](NC(=O)[C@@H](NC(=O)[C@H](CCCNC(=N)N)NC(=O)[C@@H](N)CCCCN)[C@@H](C)CC)C(C)C)[C@@H](C)CC)C(N)=O [XV, [Lys^ε(C8)]^12KR12-NH2] (H-KRIVQRIKDFLK(Octanoyl)-NH2) | >256 * g/L |
| CCCCCCCC(=O)NCCCC[C@H](NC(=O)[C@H](CCCNC(=N)N)NC(=O)[C@@H](NC(=O)[C@@H](NC(=O)[C@H](CCC(N)=O)NC(=O)[C@H](CCCNC(=N)N)NC(=O)[C@@H](NC(=O)[C@H](CCCCN)NC(=O)[C@H](CC(=O)O)NC(=O)[C@H](Cc1ccccc1)NC(=O)[C@H](CC(C)C)NC(=O)[C@@H](N)CCCNC(=N)N)[C@@H](C)CC)C(C)C)[C@@H](C)CC)C(N)=O [XVII, Retro-KR12-C8^ε-NH2] (H-RLFDKIRQVIRK(Octanoyl)-NH2) | 256 g/L |
| CCCCCCCC(=O)N[C@@H](CCCNC(=N)N)C(=O)N[C@@H](CC(C)C)C(=O)N[C@@H](Cc1ccccc1)C(=O)N[C@@H](CC(=O)O)C(=O)N[C@@H](CCCCN)C(=O)N[C@H](C(=O)N[C@@H](CCCNC(=N)N)C(=O)N[C@@H](CCC(N)=O)C(=O)N[C@H](C(=O)N[C@H](C(=O)N[C@@H](CCCNC(=N)N)C(=O)N[C@@H](CCCCN)C(N)=O)[C@@H](C)CC)C(C)C)[C@@H](C)CC [XVIII, C8^α-retro-KR12-NH2] (Octanoyl-RLFDKIRQVIRK-NH2) | >256 * g/L |
| CC[C@H](C)[C@H](NC(=O)[C@H](CCCNC(=N)N)NC(=O)[C@H](CCC(N)=O)NC(=O)[C@@H](NC(=O)[C@@H](NC(=O)[C@H](CCCNC(=N)N)NC(=O)[C@H](CCCCN)NC(=O)CCc1ccccc1)[C@@H](C)CC)C(C)C)C(=O)N[C@@H](CCCCN)C(=O)N[C@@H](CC(=O)O)C(=O)N[C@@H](Cc1ccccc1)C(=O)N[C@@H](CC(C)C)C(=O)N[C@@H](CCCNC(=N)N)C(N)=O [XXII, 3-Phenylpropionic acid-KR12-NH2] (Hydrocinnamoyl-KRIVQRIKDFLR-NH2) | 256 g/L |
| Ac-KRIVQRIKDFLR-NH2 [I, Ac-KR12-NH2] | >256 * g/L |
